Source: US20220177511A1, “SERIES OF HALOGENATED TETRACYCLIC TRITERPENE DERIVATIVES AND THEIR PREPARATION AND APPLICATION” (SHANGHAI KING-X BIOTECH CO., LTD, priority 2019, published 2022)
Values after ≈ are worked out from the molar mass of the structure shown. Like-named read-outs stand apart in the source and are kept apart here.

Experiment: Solubility test in water and FaSSIF
Type: physicochemical
Conditions: 37° C., up to 24 hours
[1] = thermodynamic from solid, FaSSIF (pH 6.5), read-out: Solubility
[2] = thermodynamic from solid, Water, read-out: Solubility

Row | SMILES | Solubility (FaSSIF (pH 6.5)) [µg/mL] | Solubility (Water) [µg/mL] | Solubility [1] [µg/mL] | Solubility [2] [µg/mL]
1 | CC(C)(O)C1CCC(C)(C2C(O)CC3(C)C4CC(OC(=O)C5CCNCC5)C5C(C)(C)C(F)(F)CCC56CC46CCC23C)O1.Cl [Compound 2-2, 4-((((2aR,3R,4S,5aS,5bS,7S,7aR,11aR,12aS)-9,9-difluoro-4-hydroxy-3-((2S,5S)-5-(2-hydroxypropan-2-yl)-2-methyltetrahydrofuran-2-yl)-2a,5a,8,8-tetramethyltetradecahydro-1H,12H-cyclopenta[a]cyclopropa[e]phenanthren-7-yl)oxy)carbonyl)piperidin-1-ium Chloride] | 1660 | 880 | – | –
2 | CC(C)(O)[C@@H]1CC[C@@](C)([C@H]2[C@@H](O)C[C@@]3(C)[C@@H]4C[C@H](OC(=O)COCCOCCOCCN)[C@H]5C(C)(C)C(F)(F)CC[C@@]56C[C@@]46CC[C@]23C)O1.O=C(O)C(F)(F)F [Compound 2-8, 2-(2-(2-(2-(((2aR,3R,4S,5aS,5bS,7S,7aR,11aR,12aS)-9,9-difluoro-4-hydroxy-3-((2S,5S)-5-(2-hydroxypropan-2-yl)-2-methyltetrahydrofuran-2-yl)-2a,5a,8,8-tetramethyltetradecahydro-1H,12H-cyclopenta[a]cyclopropa[e]phenanthren-7-yl)oxy)-2-oxoethoxy)ethoxy)ethoxy)ethan-1-aminium Trifluoroacetate] | 4020 | 2050 | – | –
3 | CC(C)(O)C1CCC(C)(C2C(O)CC3(C)C4CC(OC(=O)CNCCNCCN)C5C(C)(C)C(F)(F)CCC56CC46CCC23C)O1.O=[N+]([O-])O [Compound 2-9, 2-((2-((2-(((2aR,3R,4S,5aS,5bS,7S,7aR,11aR,12aS)-9,9-difluoro-4-hydroxy-3-((2S,5S)-5-(2-hydroxypropan-2-yl)-2-methyltetrahydrofuran-2-yl)-2a,5a,8,8-tetramethyltetradecahydro-1H,12H-cyclopenta[a]cyclopropa[e]phenanthren-7-yl)oxy)-2-oxoethyl)amino)ethyl)amino)ethan-1-aminium Nitrate] | 4520 | 2110 | – | –
4 | Br.CC(C)(O)C1CCC(C)(C2C(O)CC3(C)C4CC(OC(=O)COCCOCCOCCOCCOCCN)C5C(C)(C)C(F)(F)CCC56CC46CCC23C)O1 [Compound 2-10, 17-(((2aR,3R,4S,5aS,5bS,7S,7aR,11aR,12aS)-9,9-difluoro-4-hydroxy-3-((2S,5S)-5-(2-hydroxypropan-2-yl)-2-methyltetrahydrofuran-2-yl)-2a,5a,8,8-tetramethyltetradecahydro-1H,12H-cyclopenta[a]cyclopropa[e]phenanthren-7-yl)oxy)-17-oxo-3,6,9,12,15-pentaoxaheptadecan-1-aminium Bromide] | 4390 | 2280 | – | –
5 | CC(C)(O)[C@@H]1CC[C@@](C)([C@H]2[C@@H](O)C[C@@]3(C)[C@@H]4C[C@H](OC(=O)COCCO)[C@H]5C(C)(C)C(F)(F)CC[C@@]56C[C@@]46CC[C@]23C)O1 [Compound 2-11, (2aR,3R,4S,5aS,5bS,7S,7aR,11aR,12aS)-9,9-difluoro-4-hydroxy-3-((2S,5S)-5-(2-hydroxypropan-2-yl)-2-methyltetrahydrofuran-2-yl)-2a,5a,8,8-tetramethyltetradecahydro-1H,12H-cyclopenta[a]cyclopropa[e]phenanthren-7-yl-2-(2-hydroxyethoxy)acetate] | – | – | 1050 (≈ 1710 µM) | 550 (≈ 898 µM)
6 | CC(C)(O)[C@@H]1CC[C@@](C)([C@H]2[C@@H](O)C[C@@]3(C)[C@@H]4C[C@H](OC(=O)COCCOCCO)[C@H]5C(C)(C)C(F)(F)CC[C@@]56C[C@@]46CC[C@]23C)O1 [Compound 2-12, (2aR,3R,4S,5aS,5bS,7S,7aR,11aR,12aS)-9,9-difluoro-4-hydroxy-3-((2S,5S)-5-(2-hydroxypropan-2-yl)-2-methyltetrahydrofuran-2-yl)-2a,5a,8,8-tetramethyltetradecahydro-1H,12H-cyclopenta[a]cyclopropa[e]phenanthren-7-yl-2-(2-(2-hydroxyethoxy)ethoxy) Acetate] | – | – | 1110 | 680
7 | CC(C)(O)[C@@H]1CC[C@@](C)([C@H]2[C@@H](O)C[C@@]3(C)[C@@H]4C[C@H](OC(=O)COCCOCCOCCO)[C@H]5C(C)(C)C(F)(F)CC[C@@]56C[C@@]46CC[C@]23C)O1 [Compound 2-13, (2aR,3R,4S,5aS,5bS,7S,7aR,11aR,12aS)-9,9-difluoro-4-hydroxy-3-((2S,5S)-5-(2-hydroxypropan-2-yl)-2-methyltetrahydrofuran-2-yl)-2a,5a,8,8-tetramethyltetradecahydro-1H,12H-cyclopenta[a]cyclopropa[e]phenanthren-7-yl-2-(2-(2-(2-hydroxyethoxy)ethoxy)ethoxy)acetate] | – | – | 1150 (≈ 1640 µM) | 850 (≈ 1210 µM)
8 | CC(C)(O)[C@@H]1CC[C@@](C)([C@H]2[C@@H](O)C[C@@]3(C)[C@@H]4C[C@H](OC(=O)COCCOCCOCCOCCOCCO)[C@H]5C(C)(C)C(F)(F)CC[C@@]56C[C@@]46CC[C@]23C)O1 [Compound 2-14, (2aR,3R,4S,5aS,5bS,7S,7aR,11aR,12aS)-9,9-difluoro-4-hydroxy-3-((2S,5S)-5-(2-hydroxypropan-2-yl)-2-methyltetrahydrofuran-2-yl)-2a,5a,8,8-tetramethyltetradecahydro-1H,12H-cyclopenta[a]cyclopropa[e]phenanthren-7-yl-17-hydroxy-3,6,9,12,15-pentaoxaheptadecanoate] | – | – | 2310 (≈ 2930 µM) | 1230 (≈ 1560 µM)
9 | CC(C)(O)[C@@H]1CC[C@@](C)([C@H]2[C@@H](O)C[C@@]3(C)[C@@H]4C[C@H](OC(=O)[C@@H](N)CC(=O)O)[C@H]5C(C)(C)C(F)(F)CC[C@@]56C[C@@]46CC[C@]23C)O1 [Compound 2-24, (S)-3-carboxy-1-(((2aR,3R,4S,5aS,5bS,7S,7aR,11aR,12aS)-9,9-difluoro-4-hydroxy-3-((2S,5S)-5-(2-hydroxypropan-2-yl)-2-methyltetrahydrofuran-2-yl)-2a,5a,8,8-tetramethyltetradecahydro-1H,12H-cyclopenta[a]cyclopropa[e]phenanthren-7-yl)oxy)-1-oxopropan-2-aminium 2,2,2-trifluoroacetate] | – | – | 5450 (≈ 8710 µM) | 1500 (≈ 2400 µM)

More lines, main results first:

Row | Solubility (FaSSIF (pH 6.5)) [µg/mL] | Solubility (Water) [µg/mL] | SMILES | Solubility [1] [µg/mL] | Solubility [2] [µg/mL]
10 | 1850 | 600 | CC(C)C[C@H](N)C(=O)O[C@H]1C[C@@H]2[C@]3(CC[C@]4(C)[C@@H]([C@]5(C)CC[C@@H](C(C)(C)O)O5)[C@@H](O)C[C@@]24C)C[C@@]32CCC(F)(F)C(C)(C)[C@H]12.Cl [Compound 2-18, (S)-1-(((2aR,3R,4S,5aS,5bS,7S,7aR,11aR,12aS)-9,9-difluoro-4-hydroxy-3-((2S,5S)-5-(2-hydroxypropan-2-yl)-2-methyltetrahydrofuran-2-yl)-2a,5a,8,8-tetramethyltetradecahydro-1H,12H-cyclopenta[a]cyclopropa[e]phenanthren-7-yl)oxy)-4-methyl-1-oxopentan-2-aminium Chloride] | – | –
11 | 3500 | 900 | Br.CC(C)(O)[C@@H]1CC[C@@](C)([C@H]2[C@@H](O)C[C@@]3(C)[C@@H]4C[C@H](OC(=O)[C@@H](N)CC(N)=O)[C@H]5C(C)(C)C(F)(F)CC[C@@]56C[C@@]46CC[C@]23C)O1 [Compound 2-21, (S)-4-amino-1-(((2aR,3R,4S,5aS,5bS,7S,7aR,11aR,12aS)-9,9-difluoro-4-hydroxy-3-((2S,5S)-5-(2-hydroxypropan-2-yl)-2-methyltetrahydrofuran-2-yl)-2a,5a,8,8-tetramethyltetradecahydro-1H,12H-cyclopenta[a]cyclopropa[e]phenanthren-7-yl)oxy)-1,4-dioxobutan-2-aminium Bromide] | – | –
12 | 1250 | 700 | CC(C)(O)[C@@H]1CC[C@@](C)([C@H]2[C@@H](O)C[C@@]3(C)[C@@H]4C[C@H](OC(=O)[C@@H](N)Cc5c[nH]cn5)[C@H]5C(C)(C)C(F)(F)CC[C@@]56C[C@@]46CC[C@]23C)O1.O=S(=O)(O)O [Compound 2-22, (2aR,3R,4S,5aS,5bS,7S,7aR,11aR,12aS)-9,9-difluoro-4-hydroxy-3-((2S,5S)-5-(2-hydroxypropan-2-yl)-2-methyltetrahydrofuran-2-yl)-2a,5a,8,8-tetramethyltetradecahydro-1H,12H-cyclopenta[a]cyclopropa[e]phenanthren-7-yl-L-histidinate Sulfate] | – | –
13 | 6600 | 2300 | CC(C)(O)[C@@H]1CC[C@@](C)([C@H]2[C@@H](O)C[C@@]3(C)[C@@H]4C[C@H](OC(=O)[C@@H](N)CCCNC(=N)N)[C@H]5C(C)(C)C(F)(F)CC[C@@]56C[C@@]46CC[C@]23C)O1.Cl.Cl [Compound 2-23, 1-((S)-4-ammonio-5-(((2aR,3R,4S,5aS,5bS,7S,7aR,11aR,12aS)-9,9-difluoro-4-hydroxy-3-((2S,5S)-5-(2-hydroxypropan-2-yl)-2-methyltetrahydrofuran-2-yl)-2a,5a,8,8-tetramethyltetradecahydro-1H,12H-cyclopenta[a]cyclopropa[e]phenanthren-7-yl)oxy)-5-oxopentyl)guanidinium Chloride] | – | –
14 | 3350 | 1020 | CC(C)(O)[C@@H]1CC[C@@](C)([C@H]2[C@@H](O)C[C@@]3(C)[C@@H]4C[C@H](OC(=O)[C@@H](N)CS)[C@H]5C(C)(C)C(F)(F)CC[C@@]56C[C@@]46CC[C@]23C)O1.Cl [Compound 2-25, (R)-1-(((2aR,3R,4S,5aS,5bS,7S,7aR,11aR,12aS)-9,9-difluoro-4-hydroxy-3-((2S,5S)-5-(2-hydroxypropan-2-yl)-2-methyltetrahydrofuran-2-yl)-2a,5a,8,8-tetramethyltetradecahydro-1H,12H-cyclopenta[a]cyclopropa[e]phenanthren-7-yl)oxy)-3-mercapto-1-oxopropan-2-aminium Chloride] | – | –
